Experimental data published in PMC10146558, “Highly Cytotoxic Copper(II) Mixed-Ligand Quinolinonato Complexes: Pharmacokinetic Properties and Interactions with Drug Metabolizing Cytochromes P450” (Pharmaceutics, 2023).
Several values for one entry are separate records, joined by “and”; a condition that tells them apart may be missing. Equal values may be shown once. Read-outs that look alike come from different tables or passages of the source.

What was measured:
plasma proteins = assay: Plasma protein binding (rapid equilibrium dialysis); format: in vitro ADME, human; conditions: 10 μM in 50% plasma, 37 °C, 4 h
Procedure: Pharmacological properties of the complexes 1 and 2, including stability in plasma, microsomal stability, binding to plasma proteins, and permeability through an artificial membrane, were tested under in vitro conditions and according to methods described in previous reports. Analysis of the samples was performed using Agilent RapidFire 300 High-Throughput Mass Spectrometry System (Agilent Technologies, Wakefield, MA, USA) with subsequent detection using the mass spectrometer Qtrap 5500 (AB Sciex, Concord, Toronto, ON, Canada), abbreviation RF-MS. The samples were aspirated directly from the plates into a 10 μL sample loop and passed through a C4 cartridge with solvent A (5% acetonitrile, 95% water, 0.1% formic acid) at a flow rate of 1.5 mL/min for 3 s. After the desalting step, analytes retained on the cartridge were eluted with solvent B (95% acetonitrile, 5% water, 0.1% formic acid) in the mass spectrometer at a flow rate of 0.4 mL/min for 5 s. […]
The fraction bound value was determined using the semipermeable membrane that separates a protein-containing compartment (R chamber) from a protein-free compartment (W chamber) (Rapid Equilibrium Dialysis, Thermo Scientific™, Rockford, IL, USA). […] Samples were dissolved in mobile phase containing internal standard and analysed on the RF/MS.

[1] = Stability in human plasma; format: in vitro ADME; conditions: 37 °C, 3.3 μM
Procedure: Pharmacological properties of the complexes 1 and 2, including stability in plasma, microsomal stability, binding to plasma proteins, and permeability through an artificial membrane, were tested under in vitro conditions and according to methods described in previous reports. Analysis of the samples was performed using Agilent RapidFire 300 High-Throughput Mass Spectrometry System (Agilent Technologies, Wakefield, MA, USA) with subsequent detection using the mass spectrometer Qtrap 5500 (AB Sciex, Concord, Toronto, ON, Canada), abbreviation RF-MS. The samples were aspirated directly from the plates into a 10 μL sample loop and passed through a C4 cartridge with solvent A (5% acetonitrile, 95% water, 0.1% formic acid) at a flow rate of 1.5 mL/min for 3 s. After the desalting step, analytes retained on the cartridge were eluted with solvent B (95% acetonitrile, 5% water, 0.1% formic acid) in the mass spectrometer at a flow rate of 0.4 mL/min for 5 s. The mass spectrometry of the samples was carried out using electrospray ionisation in the positive ion mode. Daughter ion peaks were identified using a multiple-reaction monitoring protocol.
The reaction was terminated by ice-cold methanol (chemical stability) or acetonitrile:methanol (2:1), and samples were left at −80 °C overnight (plasma stability). The solution was mixed and centrifuged (4000 rpm, 9 min, 4 °C). After lyophilization of supernatant, samples were dissolved in mobile phase with internal standard and analysed by RF/MS analysis.

[2] = test system: human liver microsomal cytochrome P450s; conditions: pH 7.4
Procedure: (§1) The cuvette contained microsomes diluted to final concentration of CYP 1 µM in 50 mM potassium phosphate buffer (pH 7.4). The tested compounds were dissolved in the same buffer, and their concentrations in the experiments ranged from 0.002 to 33.310 µM. The UV-Visible spectra were recorded at room temperature by repetitive scanning between 300 and 700 nm using Varian 500 UV/VIS spectrophotometer (Agilent Technologies, Wakefield, MA, USA). Changes of absorbance in the range of the Soret’s region (380–450 nm) were plotted against the concentration of the studied compounds. Data were analysed using GraphPad Prism 6 software (La Jolla, CA, USA).

[3] = Parallel artificial membrane permeability assay (PAMPA); format: in vitro ADME; conditions: category according to log Papp
Procedure: Pharmacological properties of the complexes 1 and 2, including stability in plasma, microsomal stability, binding to plasma proteins, and permeability through an artificial membrane, were tested under in vitro conditions and according to methods described in previous reports. Analysis of the samples was performed using Agilent RapidFire 300 High-Throughput Mass Spectrometry System (Agilent Technologies, Wakefield, MA, USA) with subsequent detection using the mass spectrometer Qtrap 5500 (AB Sciex, Concord, Toronto, ON, Canada), abbreviation RF-MS. […]
PAMPA was performed with the Millipore MultiScreen filter MultiScreen-IP Durapore 0.45-μm plates and receiver plates (Merck Millipore, Burlington, MA, USA). […] The permeation of compounds across a filter membrane (activation by 10% lecithin in dodecane) was quantified by RF/MS after 18 h incubation at room temperature. The apparent permeability, logPe, was calculated from the following equation: logPe = log{C× − ln(1 − drugA/drugE)}; C = (VA × VD)/{(VD + VA) × A × T}, where VD and VA are the volumes of the donor and acceptor compartments, respectively; A is the active surface area of the membrane; T is the time of the incubation in seconds; and drugA or drugE represents the concentration of the tested compounds in the acceptor compartment and in the solution in theoretical equilibrium.

human bactosomes CYP1A2 = biological target: T1, human bactosomes CYP1A2 (Homo sapiens, UniProt P05177); assay: Isothermal titration calorimetry, bactosomes CYP1A2; format: binding; conditions: 25 °C, 100 mM phosphate buffer pH 7.4, 1% DMSO
T1 construct: purchased BD Biosciences (Franklin Lakes, NJ, USA); host or cells: bacterial membranes ('bactosomes')
T1 sequence (P05177 1-516): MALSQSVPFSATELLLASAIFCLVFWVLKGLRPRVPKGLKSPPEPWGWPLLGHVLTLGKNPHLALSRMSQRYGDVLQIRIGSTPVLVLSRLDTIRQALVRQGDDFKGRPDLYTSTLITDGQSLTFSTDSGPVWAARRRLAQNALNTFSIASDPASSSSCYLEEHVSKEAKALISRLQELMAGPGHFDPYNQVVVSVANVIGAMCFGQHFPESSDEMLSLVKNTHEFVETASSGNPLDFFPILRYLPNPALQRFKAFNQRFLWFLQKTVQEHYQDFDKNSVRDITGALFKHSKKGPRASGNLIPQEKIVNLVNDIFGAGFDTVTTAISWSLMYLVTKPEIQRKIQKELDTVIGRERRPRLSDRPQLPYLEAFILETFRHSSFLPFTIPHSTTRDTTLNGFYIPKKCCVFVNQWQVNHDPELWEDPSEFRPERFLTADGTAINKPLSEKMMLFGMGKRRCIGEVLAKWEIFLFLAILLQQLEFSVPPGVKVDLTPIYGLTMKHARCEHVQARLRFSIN
Procedure: The interactions of the compounds with selected forms of cytochrome P450, i.e., human bactosomes CYP1A2, CYP2A6, CYP3A4, and recombinant human CYP3A4, were studied using isothermal titration calorimetry (ITC). ITC experiments were performed at 25 °C with a Nano ITC Low Volume (TA Instruments, New Castle, DE, USA). During all measurements, 20 injections of 16µM of the studied compound (2.5 µL each) were titrated into 250 µL of protein (2 µM) with time intervals of 300 s and a stirring speed of 250 rpm. All ITC experiments were conducted with degassed buffered solutions (100 mM phosphate buffer, pH 7.4) in the presence of 1% DMSO. Control experiments included the titration of each complex solution into a buffer. The corrected data refer to experimental data after subtraction of the buffer control data from the compounds data. The resulting thermograms were analysed using the “Independent” model within the NanoAnalyze software (TA Instruments, New Castle, DE, USA).

[4] = test system: human liver microsomal cytochrome P450s; assay: Difference spectra (UV-visible spectral titration) with human liver microsomes; conditions: read-out: Ks (spectral binding constant); spectral differences at 386 nm, CYP 1 µM, pH 7.4, room temperature
Procedure: as §1

SMILES	Plasma protein binding, % Fraction bound (plasma proteins)	% Compound Remaining, Plasma Stability, 15 min [1] [%]	% Compound Remaining, Plasma Stability, 30 min [1] [%]	% Compound Remaining, Plasma Stability, 60 min [1] [%]	% Compound Remaining, Plasma Stability, 120 min [1] [%]	Kd [2] [µM]	PAMPA Category [3]	ITC interaction with CYP1A2B (human bactosomes CYP1A2)	Kd [4] [µM]
Cc1cc2cccnc2c2ncccc12.O.O=[N+]([O-])[O-].O=c1c([O-])c(-c2ccccc2)[nH]c2ccccc12.[Cu+2] [complex 1]	95% and 95.1 ± 1.0%	98.9 ± 2.5	94.0 ± 3.3	94.2 ± 2.3	91.2 ± 1.2	7.59 ± 1.8	Low (those with log Papp < −5 were considered poorly permeable)	no interaction	
Cc1cc2cccnc2c2ncccc12.F[B-](F)(F)F.O.O=c1c([O-])c(-c2ccccc2)[nH]c2ccccc12.[Cu+2] [complex 2]	93% and 92.9 ± 1.5%	98.3 ± 2.4	94.1 ± 2.4	96.6 ± 3.4	92.6 ± 2.2		Low (those with log Papp < −5 were considered poorly permeable)	no interaction	8.56 ± 1
